# In patent US11053204B2, “Pyrimidinyloxy benzene derivatives as herbicides” (FMC Corporation, priority 2015, dated 2021):
# Columns and labels:
# Format in all cases: in vivo
# [1] = tested on: ducksalad (Heteranthera limosa); experiment: Test B flooded paddy test, plant response rating; conditions: Heteranthera limosa, 312 h; 250 g ai/ha; Flood; scale of 0 to 100 where 0 is no effect and 100 is complete control; 13 to 15 days
# Summary of the method: (§1)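 Flooded 3 cm over soil; compound into paddy water; depth kept constant. Greenhouse 13–15 d.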
# rice (Oryza sativa) = experiment: Test B flooded paddy test, plant response rating; conditions: Oryza sativa, 312 h; 250 g ai/ha; Flood; scale of 0 to 100 where 0 is no effect and 100 is complete control; 13 to 15 days
# Summary of the method: as §1
# [2] = tested on: sedge, umbrella (small-flower umbrella sedge, Cyperus difformis); experiment: Test B flooded paddy test, plant response rating; conditions: Cyperus difformis, 312 h; 250 g ai/ha; Flood; scale of 0 to 100 where 0 is no effect and 100 is complete control; 13 to 15 days
# Summary of the method: as §1
# [3] = tested on: blackgrass (Alopecurus myosuroides); experiment: Test C preemergence, plant response rating; conditions: Alopecurus myosuroides, pre-emergence, Preemergence
# Summary of the method: (§2)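 Greenhouse plants rated visually against untreated controls 13–15 d after treatment, scale 0 = no effect to 100 = complete control. Postemergence sprays went onto potted plants 2–18 cm tall (1–4 leaves); preemergence sprays onto soil freshly sown in loam–sand or silt loam, chemicals formulated in non-phytotoxic solvent with surfactant.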
# corn (Zea mays) = experiment: Test C preemergence, plant response rating; conditions: Zea mays, pre-emergence, Preemergence
# Summary of the method: as §2
# [4] = tested on: crabgrass, large (large crabgrass, Digitaria sanguinalis); experiment: Test C preemergence, plant response rating; conditions: Digitaria sanguinalis, pre-emergence, Preemergence
# Summary of the method: as §2
# [5] = tested on: foxtail, giant (giant foxtail, Setaria faberii); experiment: Test C preemergence, plant response rating; conditions: Setaria faberi, pre-emergence, Preemergence
# Summary of the method: as §2
# [6] = tested on: lambsquarters (Chenopodium album); experiment: Test C preemergence, plant response rating; conditions: Chenopodium album, pre-emergence, Preemergence
# Summary of the method: as §2
# [7] = tested on: morningglory (Ipomoea coccinea); experiment: Test C preemergence, plant response rating; conditions: Ipomoea, pre-emergence, Preemergence
# Summary of the method: as §2
# [8] = tested on: nutsedge, yellow (yellow nutsedge, Cyperus esculentus); experiment: Test C preemergence, plant response rating; conditions: Cyperus, pre-emergence, Preemergence
# Summary of the method: as §2
# [9] = tested on: oilseed rape (Brassica napus); experiment: Test C preemergence, plant response rating; conditions: Brassica napus, pre-emergence, Preemergence
# Summary of the method: as §2
# [10] = tested on: ragweed (common ragweed, Ambrosia elatior); experiment: Test C preemergence, plant response rating; conditions: Ambrosia artemisiifolia, pre-emergence, Preemergence
# Summary of the method: as §2
# [11] = tested on: ryegrass, Italian (Italian ryegrass, Lolium multiflorum); experiment: Test C preemergence, plant response rating; conditions: Lolium multiflorum, pre-emergence, Preemergence
# Summary of the method: as §2
# soybean (Glycine max) = experiment: Test C preemergence, plant response rating; conditions: Glycine max, pre-emergence, Preemergence
# Summary of the method: as §2
# [12] = tested on: velvetleaf (Abutilon theophrasti); experiment: Test C preemergence, plant response rating; conditions: Abutilon theophrasti, pre-emergence, Preemergence
# Summary of the method: as §2
# [13] = tested on: waterhemp (common waterhemp, Amaranthus rudis); experiment: Test C preemergence, plant response rating; conditions: Amaranthus tuberculatus, pre-emergence, Preemergence
# Summary of the method: as §2
# [14] = tested on: wheat (winter wheat, Triticum aestivum); experiment: Test C preemergence, plant response rating; conditions: Triticum aestivum, pre-emergence, Preemergence
# Summary of the method: as §2
# [15] = tested on: surinam grass (Brachiaria decumbens); experiment: Test C preemergence, plant response rating
# [16] = tested on: wild poinsettia (Euphorbia heterophylla); experiment: Test C preemergence, plant response rating
# [17] = tested on: oat, wild (wild oat Avena fatua); experiment: Test C preemergence, plant response rating
smiles,measurement,setting,value
"O=C(CCC(F)(F)F)c1c(Cl)cccc1Oc1ncc(Cl)cn1 [Compound 107, 1-[2-chloro-6-[(5-chloro-2-pyrimidinyl)oxy]phenyl]-4,4,4-trifluoro-1-butanone]",pest or weed control at 250 g/ha,[1],95%
same,plant injury at 250 g/ha,rice (Oryza sativa),35%
same,pest or weed control at 250 g/ha,[2],95%
same,pest or weed control at 125 g/ha,"[3]; 125 g ai/ha, scale of 0 to 100",90%
same,pest or weed control at 16 g/ha,"[3]; 16 g ai/ha, scale 0 to 100",60%
same,pest or weed control at 31 g/ha,"[3]; 31 g ai/ha, scale 0 to 100",90%
same,pest or weed control at 62 g/ha,"[3]; 62 g ai/ha, scale 0 to 100",90%
same,"Corn plant response rating (crop injury, 0 = no effect, 100 = complete kill) at 125 g/ha","corn (Zea mays); 125 g ai/ha, scale of 0 to 100",45%
same,"Corn plant response rating (crop injury, 0 = no effect, 100 = complete kill) at 16 g/ha","corn (Zea mays); 16 g ai/ha, scale 0 to 100",0%
same,"Corn plant response rating (crop injury, 0 = no effect, 100 = complete kill) at 31 g/ha","corn (Zea mays); 31 g ai/ha, scale 0 to 100",0%
same,"Corn plant response rating (crop injury, 0 = no effect, 100 = complete kill) at 62 g/ha","corn (Zea mays); 62 g ai/ha, scale 0 to 100",15%
same,pest or weed control at 125 g/ha,"[4]; 125 g ai/ha, scale of 0 to 100",100%
same,pest or weed control at 16 g/ha,"[4]; 16 g ai/ha, scale 0 to 100",98%
same,pest or weed control at 31 g/ha,"[4]; 31 g ai/ha, scale 0 to 100",98%
same,pest or weed control at 62 g/ha,"[4]; 62 g ai/ha, scale 0 to 100",100%
same,pest or weed control at 125 g/ha,"[5]; 125 g ai/ha, scale of 0 to 100",98%
same,pest or weed control at 31 g/ha,"[5]; 31 g ai/ha, scale 0 to 100",98%
same,pest or weed control at 62 g/ha,"[5]; 62 g ai/ha, scale 0 to 100",98%
same,pest or weed control at 125 g/ha,"[6]; 125 g ai/ha, scale of 0 to 100",95%
same,pest or weed control at 31 g/ha,"[6]; 31 g ai/ha, scale 0 to 100",75%
same,pest or weed control at 62 g/ha,"[6]; 62 g ai/ha, scale 0 to 100",85%
same,pest or weed control at 125 g/ha,"[7]; 125 g ai/ha, scale of 0 to 100",85%
same,pest or weed control at 31 g/ha,"[7]; 31 g ai/ha, scale 0 to 100",0%
same,pest or weed control at 62 g/ha,"[7]; 62 g ai/ha, scale 0 to 100",40%
same,pest or weed control at 125 g/ha,"[8]; 125 g ai/ha, scale of 0 to 100",0%
same,pest or weed control at 31 g/ha,"[8]; 31 g ai/ha, scale 0 to 100",0%
same,pest or weed control at 62 g/ha,"[8]; 62 g ai/ha, scale 0 to 100",0%
same,plant injury at 125 g/ha,"[9]; 125 g ai/ha, scale of 0 to 100",98%
same,plant injury at 31 g/ha,"[9]; 31 g ai/ha, scale 0 to 100",40%
same,plant injury at 62 g/ha,"[9]; 62 g ai/ha, scale 0 to 100",85%
same,pest or weed control at 125 g/ha,"[10]; 125 g ai/ha, scale of 0 to 100",50%
same,pest or weed control at 31 g/ha,"[10]; 31 g ai/ha, scale 0 to 100",30%
same,pest or weed control at 62 g/ha,"[10]; 62 g ai/ha, scale 0 to 100",50%
same,pest or weed control at 125 g/ha,"[11]; 125 g ai/ha, scale of 0 to 100",90%
same,pest or weed control at 31 g/ha,"[11]; 31 g ai/ha, scale 0 to 100",35%
same,pest or weed control at 62 g/ha,"[11]; 62 g ai/ha, scale 0 to 100",70%
same,plant injury at 125 g/ha,"soybean (Glycine max); 125 g ai/ha, scale of 0 to 100",45%
same,plant injury at 31 g/ha,"soybean (Glycine max); 31 g ai/ha, scale 0 to 100",20%
same,plant injury at 62 g/ha,"soybean (Glycine max); 62 g ai/ha, scale 0 to 100",35%
same,pest or weed control at 125 g/ha,"[12]; 125 g ai/ha, scale of 0 to 100",98%
same,pest or weed control at 31 g/ha,"[12]; 31 g ai/ha, scale 0 to 100",75%
same,pest or weed control at 62 g/ha,"[12]; 62 g ai/ha, scale 0 to 100",98%
same,pest or weed control at 125 g/ha,"[13]; 125 g ai/ha, scale of 0 to 100",100%
same,pest or weed control at 31 g/ha,"[13]; 31 g ai/ha, scale 0 to 100",98%
same,pest or weed control at 62 g/ha,"[13]; 62 g ai/ha, scale 0 to 100",100%
same,plant injury at 125 g/ha,"[14]; 125 g ai/ha, scale of 0 to 100",35%
same,plant injury at 31 g/ha,"[14]; 31 g ai/ha, scale 0 to 100",10%
same,plant injury at 62 g/ha,"[14]; 62 g ai/ha, scale 0 to 100",15%
same,"Plant response rating, Surinam Grass","[15]; 31 g ai/ha, scale 0 to 100",60
same,"Plant response rating, Surinam Grass","[15]; 62 g ai/ha, scale 0 to 100",98
same,"Plant response rating, Surinam Grass","[15]; 125 g ai/ha, scale of 0 to 100",98
same,"Plant response rating, Poinsettia, Wild","[16]; 31 g ai/ha, scale 0 to 100",10
same,"Plant response rating, Poinsettia, Wild","[16]; 62 g ai/ha, scale 0 to 100",40
same,"Plant response rating, Poinsettia, Wild","[16]; 125 g ai/ha, scale of 0 to 100",70
same,"Plant response rating, Oat, Wild","[17]; 31 g ai/ha, scale 0 to 100",5
same,"Plant response rating, Oat, Wild","[17]; 62 g ai/ha, scale 0 to 100",30
same,"Plant response rating, Oat, Wild","[17]; 125 g ai/ha, scale of 0 to 100",65
